The text below walks through data of patent US5075296A, “Azacyclooctadiene compound and pharmaceutical use” (Eisai Co., Ltd., priority 1989, dated 1991).

The test system of assay [1] is KB cells. Put plainly: antitumor activity in vitro with cultured KB cells (growth inhibition, Coulter counter). Format: cell-based, human. Particulars: four days, 37° C., MEM - 10% calf serum; for ED50 (concentration at which the growth inhibition was substantially 50% based on the control): 5760 min; for IC50: Homo sapiens, KB, 96 h, read-out: ED50 (concentration at which the growth inhibition was substantially 50% based on the control). As for the experimental part: The antitumor activity of the compounds of the present invention was determined in vitro with cultured KB cells.
The experiment was conducted by using KB derived from a human epidermoid carcinoma of the mouth and Eagle's minimal essential medium (MEM) - 10% calf serum at 37° C. in a carbon dioxide incubator (5% CO2).
KB cells were diluted at a dilution rate of 1×10^4 /ml medium. 2 ml of the sample thus formed was placed in a 30-mm plastic dish so that the final concentration of the compounds of the present invention would be 100, 30, 10, 3 or 1 μg/ml. After four days, the cells were peeled from the dish surface with trypsin and the number of the cells was counted with a Coulter counter.
The criterion according to NCI (U.S.A.) was employed to determine the concentration (ED50) at which the growth inhibition was substantially 50% based on the control.

The test system of assay [2] is S-180 salcoma cells. In words: antitumor activity in ICR mice inoculated with S-180 salcoma cells (increase in life-span). Format: in vivo, mouse (female ICR mice). To be noted: intra-peritoneal, once a day Day 1 to 5; for Number of surviving mice: observation period 52 days, saline control 0/12, DMSO 0/7; for Prolongation extent of life: saline control 0, DMSO -11; for Average days of the prolongation of life: saline control 13.3 ± 3.7, DMSO 12.0 ± 3.0. As to the method: Female ICR mice being 6 weeks old were inoculated abdominally with 0.2 ml of a sample of cell suspension in PBS containing 5×10^5 S-180 salcoma cells, on Day 0. Once a day for 5 days (Day 1 to 5) from the next day, they were inoculated abdominally with the above shown compounds of A-IV-b, B-VI-6 and D-I-a, respectively, dispersed in 6 wt. % dimethylsulfoxide solution, with intra-peritoneal injection of 25 or 50 mg/kg. A saline and a solvent were used for reference control. 12 to 7 mice were used in the saline control and the drug test, respectively. Antitumor activity was determined by the mean survival time (prolongation of life) of the test group (T) with that of the control group (C) and is shown in terms of an increase in life-span (prolongation extent of life), that is, ((T/C)×100%). The observation period was 52 days and survivors were excluded from calculation.

≈ marks a conversion by molar mass, not a printed value.

Regarding `COc1cc(C2c3cc4c(cc3C(N=[N+]=[N-])C3COC(=O)N23)OCO4)cc(OC)c1OC` [D-X-a], in assay [1], the “ED50 (concentration at which the growth inhibition was substantially 50% based on the control)” value amounted to 0.68 µg/mL (≈ 1.54 µM).

`COc1cc2c(c(OC)c1OC)-c1cc3c(cc1CC1CNC(=O)N1C2)OCO3` (stereo not shown) [B-VI-b]: the IC50 in assay [1] is less than 0.3 µg/mL. For the same compound, in assay [2] (25 mg/kg), the “Number of surviving mice” value is given as 2/7, the “Prolongation extent of life” value was found to be 50% and the “Average days of the prolongation of life” value was found to be 20.2 ± 4.2 days. For the same compound, in assay [2] (50 mg/kg), the “Number of surviving mice” value is 0/7, the “Prolongation extent of life” value worked out at 120% and the “Average days of the prolongation of life” value worked out at 29.7 ± 3.9 days.

Turning to `COc1cc2c(c(OC)c1OC)-c1cc3c(cc1CC(CO)N(C=O)C2)OCO3` (stereo not shown) [A-VII-a], in assay [1], the IC50 was less than 0.3 µg/mL.

For the compound `COc1cc2c(c(OC)c1O)-c1cc3c(cc1CC1COC(=O)N1C2)OCO3` (stereo not shown) [A-IX-a], the IC50 in assay [1] is 50 µg/mL (≈ 130 µM).

Consider `COc1cc2c(c(OC)c1OC)-c1cc3c(cc1CC(CO)N(C)C2)OCO3` (stereo not shown) [A-V-b], for which the “ED50 (concentration at which the growth inhibition was substantially 50% based on the control)” value in assay [1] stood at 1.1 µg/mL (≈ 2.84 µM).

Consider `COc1cc(CN2C(=O)NCC2Cc2ccc3c(c2)OCO3)cc(OC)c1OC` (stereo not shown) [B-V], for which, in assay [1], the IC50 stood at 47 µg/mL (≈ 117 µM).

Turning to `COc1cc2c(c(OC)c1OC)-c1cc3c(cc1CC1CN(CC(=O)O)C(=O)N1C2)OCO3` (stereo not shown) [B-VIII-b], the IC50 in assay [1] was 5.4 µg/mL (≈ 11.8 µM).

Take `COc1cc(CN2C(=O)OCC2Cc2ccc3c(c2)OCO3)cc(OC)c1OC` (stereo not shown) [A-III]: the IC50 in assay [1] was 35 µg/mL (≈ 87.2 µM).

For `COc1cc2c(c(OC)c1OC)-c1cc3c(cc1CC(CO)N(C)C2)OCO3` (stereo not shown) [A-V-a], the IC50 in assay [1] was 1.5 µg/mL (≈ 3.87 µM).

Take `COc1cc2c(c(OC)c1OC)-c1cc3c(cc1CC1COC(=O)N1C2)OCO3` (stereo not shown) [A-IV-b]: in assay [1], the “ED50 (concentration at which the growth inhibition was substantially 50% based on the control)” value was less than 0.3 µg/mL. For the same compound, in assay [2] (25 mg/kg), the “Number of surviving mice” value is recorded as 0/7, the “Prolongation extent of life” value is listed as -4% and the “Average days of the prolongation of life” value turned out to be 12.9 ± 2.3 days. In addition, in assay [2] (50 mg/kg), the “Number of surviving mice” value is recorded as 0/7, the “Prolongation extent of life” value came out at 40% and the “Average days of the prolongation of life” value was found to be 19.0 ± 5.5 days.

Regarding `COc1cc2c(c(OC)c1OC)-c1cc3c(cc1CC1COC(=O)N1C2)OCO3` (stereo not shown) [A-IV-a], the “ED50 (concentration at which the growth inhibition was substantially 50% based on the control)” value in assay [1] stood at 47.0 µg/mL (≈ 118 µM).

Turning to `COc1cc(C2c3cc4c(cc3CC3COC(=O)N32)OCO4)cc(OC)c1OC` [D-I-a], in assay [2] (25 mg/kg), the “Number of surviving mice” value is given as 0/7, the “Prolongation extent of life” value is recorded as 62% and the “Average days of the prolongation of life” value came out at 21.9 ± 4.0 days. Also, in assay [2] (50 mg/kg), the “Number of surviving mice” value is listed as 0/7, the “Prolongation extent of life” value stood at 48% and the “Average days of the prolongation of life” value came to 20.0 ± 5.6 days.

`COc1cc2c(c(OC)c1OC)-c1cc3c(cc1CC1CN(CC(=O)OC(C)(C)C)C(=O)N1C2)OCO3` (stereo not shown) [B-VII-b]: in assay [1], the IC50 was 1.7 µg/mL (≈ 3.32 µM).

Regarding `COc1c(O)cc2c(c1OC)-c1cc3c(cc1CC1COC(=O)N1C2)OCO3` (stereo not shown) [A-VIII-a], the IC50 in assay [1] amounted to 17 µg/mL (≈ 44.1 µM).

As for `COc1cc(C2c3cc4c(cc3C(N)C3COC(=O)N23)OCO4)cc(OC)c1OC` [D-XI-b], the IC50 in assay [1] is less than 0.3 µg/mL.

With `COc1cc(C2c3cc4c(cc3C(N=[N+]=[N-])C3COC(=O)N23)OCO4)cc(OC)c1OC` [D-X-b], the “ED50 (concentration at which the growth inhibition was substantially 50% based on the control)” value in assay [1] was less than 0.3 µg/mL.

Turning to `COc1cc2c(c(OC)c1OC)-c1cc3c(cc1CC(COC(C)=O)N(C)C2)OCO3` (stereo not shown) [A-VI-a], in assay [1], the IC50 came to 1.65 µg/mL (≈ 3.84 µM).
